The source made the active and inactive calls.
Key:
[1] = biological target: T1, Rac GTPase-activating protein 1 (Homo sapiens, UniProt Q9H0H5); test: MgcRacGAP GTPase-activating activity inhibitors, confirmation, biochemical, ADP Hunter fluorescence, primary and confirmatory (AID 624330); type: functional
T1 sequence (Q9H0H5 whole entry): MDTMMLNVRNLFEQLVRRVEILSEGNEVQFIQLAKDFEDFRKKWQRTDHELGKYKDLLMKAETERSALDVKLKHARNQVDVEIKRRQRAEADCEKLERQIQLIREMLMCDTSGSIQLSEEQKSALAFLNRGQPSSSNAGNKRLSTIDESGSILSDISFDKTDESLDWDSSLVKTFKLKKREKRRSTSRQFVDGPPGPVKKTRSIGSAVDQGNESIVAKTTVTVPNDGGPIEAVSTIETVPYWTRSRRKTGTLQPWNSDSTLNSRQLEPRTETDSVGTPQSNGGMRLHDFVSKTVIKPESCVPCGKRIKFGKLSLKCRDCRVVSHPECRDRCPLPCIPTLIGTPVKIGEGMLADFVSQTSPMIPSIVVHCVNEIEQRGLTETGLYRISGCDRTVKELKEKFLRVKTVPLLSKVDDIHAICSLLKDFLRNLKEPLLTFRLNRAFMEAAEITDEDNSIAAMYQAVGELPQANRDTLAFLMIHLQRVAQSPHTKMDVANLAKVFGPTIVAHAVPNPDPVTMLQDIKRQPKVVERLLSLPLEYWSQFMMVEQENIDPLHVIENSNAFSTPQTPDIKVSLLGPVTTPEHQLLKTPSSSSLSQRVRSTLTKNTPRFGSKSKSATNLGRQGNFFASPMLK

[2] = biological target: Cytochrome P450 3A4 (Homo sapiens, UniProt P08684);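 also: CYP3A4 tested as one member of a cytochrome P450 panel screen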
Chain of Cytochrome P450 3A4 (P08684 whole entry): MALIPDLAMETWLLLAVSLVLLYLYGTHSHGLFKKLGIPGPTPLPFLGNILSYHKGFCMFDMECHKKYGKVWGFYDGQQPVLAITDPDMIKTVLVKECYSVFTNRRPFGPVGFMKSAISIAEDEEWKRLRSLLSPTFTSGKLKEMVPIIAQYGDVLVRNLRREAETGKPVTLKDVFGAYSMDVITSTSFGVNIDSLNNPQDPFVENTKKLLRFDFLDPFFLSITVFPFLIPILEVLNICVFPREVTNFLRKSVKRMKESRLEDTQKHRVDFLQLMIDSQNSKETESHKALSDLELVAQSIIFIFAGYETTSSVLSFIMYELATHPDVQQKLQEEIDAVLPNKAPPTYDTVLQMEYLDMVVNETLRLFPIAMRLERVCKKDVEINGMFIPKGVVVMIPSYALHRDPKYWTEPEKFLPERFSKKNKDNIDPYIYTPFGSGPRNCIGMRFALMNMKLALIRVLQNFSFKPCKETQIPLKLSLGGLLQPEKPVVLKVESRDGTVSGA

[3] = biological target: T2, Heat shock factor protein 1 (Mus musculus, UniProt P38532); test: inhibition of MG132-induced HSE-luciferase signal, confirmation, cell-based, NIH3T3, luminescence, dose retest (AID 2382); type: functional;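 also: NIH3T3 fibroblasts with HSF1-driven luciferase reporter stressed by proteasome inhibitor MG132; luminescence from HSF1-driven luciferase expression after 8 hours of MG132 stress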
T2 sequence (P38532 whole entry): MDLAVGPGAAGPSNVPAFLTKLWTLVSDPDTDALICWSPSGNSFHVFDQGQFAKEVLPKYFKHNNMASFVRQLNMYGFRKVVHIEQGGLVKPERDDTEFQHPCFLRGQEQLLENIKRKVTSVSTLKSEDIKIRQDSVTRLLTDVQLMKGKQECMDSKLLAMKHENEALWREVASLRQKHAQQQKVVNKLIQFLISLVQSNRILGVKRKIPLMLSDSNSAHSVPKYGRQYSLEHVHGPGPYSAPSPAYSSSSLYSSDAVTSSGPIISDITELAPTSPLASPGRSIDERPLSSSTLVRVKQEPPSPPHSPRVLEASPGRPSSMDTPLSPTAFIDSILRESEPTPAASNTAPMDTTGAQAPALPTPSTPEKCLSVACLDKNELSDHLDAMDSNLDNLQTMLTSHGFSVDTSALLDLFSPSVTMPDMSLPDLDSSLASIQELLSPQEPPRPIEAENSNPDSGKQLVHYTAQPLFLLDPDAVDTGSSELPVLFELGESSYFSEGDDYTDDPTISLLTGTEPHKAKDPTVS

[4] = system: Streptococcus sp. 'group A'; test: growth inhibition of control SK(-) GAS strain, dose response, counter-screen for streptokinase expression inhibitor project, luminescence, kanamycin, BacTiterGlo, confirmation (AID 1900); type: functional, organism-based; settings: Streptococcus sp. 'group A'
[5] = system: Streptococcus; test: Group A Streptococcus viability loss, dose response, counter-screen for streptokinase expression inhibitor project, luminescence, BacTiterGlo (AID 1915); type: functional, organism-based; settings: Streptococcus;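 also: potency for reduction of bacterial viability or growth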
[6] = biological target: T2, Heat shock factor protein 1; test: HSF1 potentiators in luciferase reporter cells, confirmation, cell-based, NIH3T3, luminescence, dose retest (AID 435004); type: functional;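 also: stress induced by proteasome inhibitor MG132 added 30 min after compound; luciferase reporter driven by HSF1 response element in NIH3T3 cells; actives raise luminescence as potentiators of the MG132 stress response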
[7] = biological target: T3, Corticotropin-releasing factor receptor 2/Corticotropin-releasing factor-binding protein (Homo sapiens, UniProt P24387+Q13324); test: activators of CRF receptor 2 with binding protein – uHTS hits, confirmation (AID 602473); type: functional; settings: read-out: EC50_Mean
T3 sequence (Q13324 whole entry): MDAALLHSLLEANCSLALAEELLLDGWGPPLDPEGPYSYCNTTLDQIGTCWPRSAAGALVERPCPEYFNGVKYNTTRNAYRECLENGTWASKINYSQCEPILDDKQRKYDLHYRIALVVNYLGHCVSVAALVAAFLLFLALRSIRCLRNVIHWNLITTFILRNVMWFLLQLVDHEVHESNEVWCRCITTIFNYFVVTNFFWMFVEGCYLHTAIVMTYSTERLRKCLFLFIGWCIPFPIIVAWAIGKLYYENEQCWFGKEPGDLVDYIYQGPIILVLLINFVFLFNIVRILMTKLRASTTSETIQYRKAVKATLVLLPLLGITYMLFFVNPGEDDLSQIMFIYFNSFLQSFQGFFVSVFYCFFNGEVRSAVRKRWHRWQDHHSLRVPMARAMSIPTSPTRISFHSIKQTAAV
T3 sequence (P24387 whole entry): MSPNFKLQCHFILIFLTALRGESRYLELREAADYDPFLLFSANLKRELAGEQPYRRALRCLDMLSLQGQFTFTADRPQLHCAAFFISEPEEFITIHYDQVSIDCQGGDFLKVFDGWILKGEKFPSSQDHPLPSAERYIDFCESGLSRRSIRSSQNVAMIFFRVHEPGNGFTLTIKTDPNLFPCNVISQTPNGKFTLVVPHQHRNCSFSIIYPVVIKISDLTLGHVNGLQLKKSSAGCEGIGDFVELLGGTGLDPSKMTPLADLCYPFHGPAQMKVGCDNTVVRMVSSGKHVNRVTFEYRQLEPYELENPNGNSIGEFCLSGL

[8] = biological target: Cytochrome P450 2C19 (Homo sapiens, UniProt P33261); test: Cytochrome panel assay with activity outcomes. Panel member name: p450-cyp2c19 Compounds with AC50 equal or less than 10 uM are considered active; type: functional; settings: read-out: AC50
Chain of Cytochrome P450 2C19 (P33261 whole entry): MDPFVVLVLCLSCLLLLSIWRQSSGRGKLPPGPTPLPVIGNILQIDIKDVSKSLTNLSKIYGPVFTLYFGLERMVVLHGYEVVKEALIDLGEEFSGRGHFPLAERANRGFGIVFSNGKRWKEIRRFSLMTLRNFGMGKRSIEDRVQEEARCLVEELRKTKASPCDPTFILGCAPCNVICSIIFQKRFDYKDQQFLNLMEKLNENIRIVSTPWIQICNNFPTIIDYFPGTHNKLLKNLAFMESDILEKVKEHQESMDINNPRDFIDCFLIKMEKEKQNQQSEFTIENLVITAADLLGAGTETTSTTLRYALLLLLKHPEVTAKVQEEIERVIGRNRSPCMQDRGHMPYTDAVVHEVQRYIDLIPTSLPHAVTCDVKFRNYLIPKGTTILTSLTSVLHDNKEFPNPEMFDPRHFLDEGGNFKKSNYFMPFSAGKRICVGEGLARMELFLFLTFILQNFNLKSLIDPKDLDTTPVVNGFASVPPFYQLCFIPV

[9] = biological target: Cytochrome P450 2C9 (Homo sapiens, UniProt P11712)
Chain of Cytochrome P450 2C9 (P11712 whole entry): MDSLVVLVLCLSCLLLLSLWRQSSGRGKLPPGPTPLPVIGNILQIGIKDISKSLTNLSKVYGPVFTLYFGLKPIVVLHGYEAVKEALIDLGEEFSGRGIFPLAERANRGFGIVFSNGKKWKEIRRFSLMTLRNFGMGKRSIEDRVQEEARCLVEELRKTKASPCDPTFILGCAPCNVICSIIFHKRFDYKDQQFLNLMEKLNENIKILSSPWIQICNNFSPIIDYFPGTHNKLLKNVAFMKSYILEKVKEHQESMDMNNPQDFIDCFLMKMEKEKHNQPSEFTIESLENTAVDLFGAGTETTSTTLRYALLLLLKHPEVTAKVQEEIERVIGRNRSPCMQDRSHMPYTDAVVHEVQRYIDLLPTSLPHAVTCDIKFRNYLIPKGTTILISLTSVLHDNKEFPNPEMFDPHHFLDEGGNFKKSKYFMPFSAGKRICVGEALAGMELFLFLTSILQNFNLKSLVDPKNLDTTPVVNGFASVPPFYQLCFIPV

CCOc1cc(/C=N/NC(=O)c2cc(C3CC3)[nH]n2)ccc1O
IC50 [1]: 54.9 µM (active)

O=C(c1ccc(Cl)c(S(=O)(=O)N2CCCCCC2)c1)N1CCN(c2ccc(O)cc2)CC1
IC50 [1]: 33.7 µM (active)

O=c1c(-c2cccc(F)c2)nc2cncnc2n1-c1ccccc1
AC50 [2]: 20 µM (inconclusive)

O=C(Cn1[nH]c(=O)c2ccccc2c1=O)OCC(=O)c1ccccc1Cl
EC50 [3]: > 195 µM (not active)

CCC(=O)N1N/C(=C2/C(=O)NC(=O)N(CCc3ccccc3)C2=O)CC1c1ccc(OC)c(OC)c1 (stereo unspecified)
EC50 [4]: 1.4 µM (active) | EC50 [5]: 26.4 µM (active)

OCC1(CCCc2ccccc2)CCN(C2CCSCC2)CC1
EC50 [6]: > 260 µM (inactive)

Cc1ccccc1N1CCN(S(=O)(=O)Cc2ccccc2)CC1
EC50 [6]: > 260 µM (inactive)

O=C(CN1C(=O)NC2(CCCc3ccccc32)C1=O)Nc1cccc(S(=O)(=O)N2CCCCC2)c1 (stereo unspecified)
EC50 [6]: > 260 µM (inactive)

Cc1c(N=C2N=C(NC(=O)c3ccc(F)cc3)c3ccccc32)c(=O)n(-c2ccccc2)n1C
EC50 [7]: 15.6 µM (active)

N#C/C(=C/c1cc(Br)cs1)C(=O)NCC1CCCO1 (stereo unspecified)
EC50 [3]: > 195 µM (not active)

COc1ccc(O/C(=N\S(=O)(=O)c2ccccc2)c2ccccc2)cc1
IC50 [1]: 45.5 µM (active)

Cn1cccc1/C=N/N1CCN(Cc2ccccc2Cl)CC1
IC50 [1]: 82.1 µM (active)

O=C(CNc1ccc2c(c1)OCO2)N/N=C\c1ccccc1Cl
IC50 [1]: 114 µM (active)

O=C(NCc1ccccc1)[C@]1(C(F)(F)F)C[C@H](CCc2ccccc2)CCCO1
EC50 [3]: > 195 µM (not active)

Cc1ccc(OC(=O)c2ccc3nc(C)sc3c2)cc1
EC50 [3]: 0.737 µM (active)

Cc1nc([N+](=O)[O-])cn1-c1ccc(N)cc1
EC50 [3]: > 195 µM (not active)

CCOC(=O)C1(CC2CCCCO2)CCN(Cc2nc3ccccc3[nH]2)CC1 (stereo unspecified)
EC50 [3]: > 195 µM (not active)

Cc1cccc(C)c1NC(=O)CN1C(=O)NC(C)(CCc2ccccc2)C1=O (stereo unspecified)
EC50 [3]: > 195 µM (not active)

COCCn1c(=O)c(C)nc2cnc(Oc3ccccc3)nc21
AC50 [8]: 39.8 µM (inconclusive) | AC50 [2]: 25.1 µM (inconclusive)

Cc1ccc2[nH]c(SCC(=O)c3ccc(Cl)s3)nc2c1
EC50 [4]: > 150 µM (not active) | EC50 [5]: > 150 µM (not active)

CCCC[C@@H]1CN2[C@H](c3ccc(Br)cc3)[C@@H](C)CC[C@H]2C(=O)O1
AC50 [2]: 5.01 µM (inconclusive)

COc1cc(/C=C2\SC(=S)N(NC(=O)c3ccc(O)cc3)C2=O)ccc1O
IC50 [1]: 59 µM (active)

Cc1ccc(N[C@H](c2ccccc2)c2ccc3cccnc3c2O)cc1
AC50 [8]: 3.98 µM (inconclusive) | AC50 [9]: 3.98 µM (inconclusive) | AC50 [2]: 3.16 µM (inconclusive)

CC(=O)Nc1ccc(NC(=O)CSc2cn(CC(=O)N3CCOCC3)c3ccccc23)cc1
EC50 [3]: > 195 µM (not active)

COc1ccc(C(=O)CCN(C)C)c2ccccc12
AC50 [2]: 0.316 µM (inconclusive)

CCn1c(SCc2ccc(C(=O)Nc3nccs3)cc2)nnc1-c1ccc(NC(C)=O)cc1
AC50 [2]: 1.12 µM (inconclusive)

Source: ChEMBL document CHEMBL1201862, “PubChem BioAssay data set” (2004)
